Measured values published in patent USRE38257E1, “Piperdine derivatives and hypotensives containing the same” (Ajinomoto Co., Inc., priority 1988, dated 2003).

System: male spontaneously hypertensive rats
Experiment: Decrease in systolic blood pressure in spontaneously hypertensive rats after intravenous bolus injection, indirect (tail-cuff) method
Type: in vivo, rat
Conditions: dose 10 mg/kg i.v. bolus; for Decrease in systolic blood pressure (mmHg) time after administration (hour) 0.5: 0.5 hour after administration; for Decrease in systolic blood pressure (mmHg) time after administration (hour) 4: 4 hours after administration
Experimental: As test animals, four male spontaneously hypertensive rats (weight 400 to 440 g) that were sufficiently adapted for feeding and in which hypertension was confirmed were used.
Physiological saline aqueous solution containing 2.5% Nicolle and 2.5% ethanol of sample was intravenously administered by bolus injection at a dose of 1 ml per 1 kg of body weight. Systolic blood pressure after administration was measured by the indirect (tail-cuff) method.

Row | Structure (SMILES) | Decrease in systolic blood pressure (mmHg) time after administration (hour) 0.5 | Decrease in systolic blood pressure (mmHg) time after administration (hour) 4
1 | C1=Cc2ccccc2C(=C2CCN(CCCCc3ccccc3)CC2)c2ccccc21.Cl [Example 15, 4-(4-(5H-Dibenzo[a,d]cyclohepten-5-ylidene)-1-piperidinyl)-1-phenylbutane hydrochloride] | −130 mmHg | −136 mmHg
2 | C1=Cc2ccccc2C(=C2CCN(CCCCCc3ccccc3)CC2)c2ccccc21.Cl [Example 16, 5-(4-(5H-Dibenzo[a,d]cyclohepten-5-ylidene)-1-piperidinyl)-1-phenylpentane hydrochloride] | −114 mmHg | −30 mmHg
3 | C1=Cc2ccccc2C(=C2CCN(CCCCCCc3ccccc3)CC2)c2ccccc21.Cl [Example 17, 6-(4-(5H-Dibenzo[a,d]cyclohepten-5-ylidene)-1-piperidinyl)-1-phenylhexane hydrochloride] | −84 mmHg | −16 mmHg
4 | C1=Cc2ccccc2C(=C2CCN(CCCOc3ccccc3)CC2)c2ccccc21.Cl [Example 20, 3-(4-(5H-Dibenzo[a,d]cyclohepten-5-ylidene)-1-piperidinyl)-1-phenoxypropane hydrochloride] | −37 mmHg | 2 mmHg
5 | C1=Cc2ccccc2C(=C2CCN(CCCSc3ccccc3)CC2)c2ccccc21.Cl [Example 23, 3-(4-(5H-Dibenzo[a,d]cyclohepten-5-ylidene)-1-piperidinyl)-1-phenylthiopropane hydrochloride] | −34 mmHg | 10 mmHg
6 | Cl.O=[N+]([O-])c1ccccc1S(=O)(=O)NCCN1CCC(=C2c3ccccc3C=Cc3ccccc32)CC1 [Example 25, 4-(5H-Dibenzo[a,d]cyclohepten-5-ylidene)-1-(2-(2-nitrobenzenesulfonyl)aminoethyl)piperidine hydrochloride] | −8 mmHg | −7 mmHg
7 | Cl.O=c1[nH]c2ccccc2c(=O)n1CCN1CCC(=C2c3ccccc3C=Cc3ccccc32)CC1 [Example 28] | −52 mmHg | 4 mmHg
8 | COc1ccc(C(C#N)(CCCN2CCC(=C3c4ccccc4C=Cc4ccccc43)CC2)C(C)C)cc1OC.Cl (centres unmarked) [Example 31, 5-(4-(5H-Dibenzo[a,d]cyclohepten-5-ylidene)-1-piperidinyl)-2-(3,4-dimethoxyphenyl)-2-isopropylvaleronitrile hydrochloride] | −61 mmHg | −11 mmHg
9 | Cl.O=C(C=Cc1ccccc1)Nc1ccccc1SCCCN1CCC(=C2c3ccccc3C=Cc3ccccc32)CC1 [Example 37, 1-(3-(2-Cinnamoylaminophenylthio)-1-propyl)-4-(5H-dibenzo[a,d]-cyclohepten-5-ylidene)piperidine hydrochloride] | −78 mmHg | −36 mmHg
10 | C(=Cc1ccccc1)CN1CCC(=C2c3ccccc3C=Cc3ccccc32)CC1.Cl [Example 38, 1-Cinnamyl-4-(5H-dibenzo[a, d]cyclohepten-5-ylidene)piperidine hydrochloride] | −140 mmHg | −76 mmHg
